A short description of data set [1]: Cytotoxicity against mouse RAW264.7 cells assessed as maximal safe dose measured after 24 hrs by MTT assay. The following applies: read-out: MTD. In kind it is toxicity, cell-based. On the technique in general: Tetrazolium assays rely on reduction of a dye to a coloured formazan, in cell work by metabolically active cells.
Data set [2] is described as follows: Cytotoxicity against mouse RAW264.7 cells assessed as cell viability at 50 uM measured after 24 hrs by MTT assay. The format is toxicity, cell-based. The following applies: read-out: Activity.
The next data set concerns RAW264.7. The data set can be described thus: cells. The following applies: Mus musculus, RAW264.7, 24 h.
The nature of data set [3]: Gastric ulcerogenic activity in mouse assessed as mucosal erosion and inflammatory cellular infiltration at 2.5 to 10 mg/kg, po by hematoxylin and eosin staining based assay. The format is toxicity, organism-based. The settings on record: in vivo, dose 2.5-10 mg/kg.
Data set [4] has as its system Mus musculus. The data set can be described thus: Anti-inflammatory activity against carrageenan-induced hind paw edema mouse model assessed as decrease in COX-2 expression in connective tissue at 10 mg/kg, po. The format is functional, organism-based.
Data set [5] deals with Mus musculus. The data set can be described thus: Anti-inflammatory activity against carrageenan-induced hind paw edema mouse model assessed as reduction in cellular infiltration in connective tissue at 10 mg/kg, po. In kind it is functional, organism-based. On the technique in general: In the carrageenan paw model, swelling and tenderness develop within hours.
The subject of data set [6] is Mus musculus. The data set can be described thus: Anti-inflammatory activity against carrageenan-induced paw edema in ICR mouse model assessed as reduction in IL-6 level in serum at 10 mg/kg, po measured after 5 hrs by ELISA relative to control. In kind it is functional.
In data set [7] the test system is Mus musculus. In words: Anti-inflammatory activity against carrageenan-induced paw edema in ICR mouse model assessed as reduction in TNF-alpha level in serum at 10 mg/kg, po measured after 5 hrs by ELISA relative to control. The format is functional.

SMILES strings stand for the structures. Activity calls are given as the source filed them. No cut-off for these calls is given here.

Description for RAW264.7: Anti-inflammatory activity against mouse RAW264.7 cells assessed as inhibition of LPS-induced NO production measured after 24 hrs incubation by Griess analysis

Consider `O=C(OCc1c(-c2ccccc2)no[n+]1[O-])c1nc(CCl)n(-c2ccccc2)n1`, for which, in data set [1], the MNTC at 24 h was approximately 20 µg/mL. Also, in data set [2], the viability at 24 h, 50 µM was more than 95%.

The term IC50 denotes the concentration that gives 50% inhibition. Higher therefore signals a need for much substance. `O=C(OCc1c(-c2ccccc2)no[n+]1[O-])c1nc(CCl)n(-c2ccccc2C(F)(F)F)n1`: in data set [1], the MNTC at 24 h is approximately 20 µg/mL. Also, the viability at 24 h, 50 µM in data set [2] is more than 95%. In addition, in the data set on RAW264.7, half-maximal inhibition (IC50) required 13.8 µM.

Take `[O-][n+]1ccno1`: in the data set with RAW264.7, the midpoint of inhibition, the IC50, lay at 50 µM.

As to `O=C(OCc1c(-c2ccccc2)no[n+]1[O-])c1nc(CCl)n(-c2ccc(C(F)(F)F)cc2)n1`, in data set [1], the MNTC at 24 h is approximately 20 µg/mL. Also, in data set [2], the viability at 24 h, 50 µM is more than 95%.

`COc1ccc(-n2nc(C(=O)OCc3c(-c4ccccc4)no[n+]3[O-])nc2CCl)cc1`: the MNTC at 24 h in data set [1] is approximately 20 µg/mL. Further, in data set [2], the viability at 24 h, 50 µM is more than 95%.

For `Cc1cccc(-n2nc(C(=O)OCc3c(-c4ccccc4)no[n+]3[O-])nc2CCl)c1`, in data set [1], the MNTC at 24 h was approximately 20 µg/mL. In addition, in data set [2], the viability at 24 h, 50 µM was more than 95%. Moreover, in the data set with RAW264.7, the half-maximal inhibitory concentration (IC50) came out at 6.1 µM.

As for `O=C(OCc1c(-c2ccccc2)no[n+]1[O-])c1nc(CCl)n(-c2cccc(F)c2)n1`, in data set [1], the MNTC at 24 h was approximately 20 µg/mL. Further, the viability at 24 h, 50 µM in data set [2] was more than 95%.

Turning to `O=C(OCc1c(-c2ccccc2)no[n+]1[O-])c1nc(CCl)n(-c2ccccc2F)n1`, the MNTC at 24 h in data set [1] was approximately 20 µg/mL. The viability at 24 h, 50 µM in data set [2] is more than 95%. Also, the IC50 with RAW264.7 is 14.6 µM.

`O=C(OCc1c(-c2ccccc2)no[n+]1[O-])c1nc(CCl)n(-c2cccc(C(F)(F)F)c2)n1`: in data set [1], the MNTC at 24 h is approximately 20 µg/mL. In addition, in data set [2], the viability at 24 h, 50 µM was more than 95%. Besides, the Activity result in data set [3] is given as “Non-Toxic”.

Turning to `N#Cc1ccc(-n2nc(C(=O)OCc3c(-c4ccccc4)no[n+]3[O-])nc2CCl)cc1`, the MNTC at 24 h in data set [1] is approximately 20 µg/mL. The viability at 24 h, 50 µM in data set [2] was more than 95%.

For the molecule `O=C(OCc1c(-c2ccccc2)no[n+]1[O-])c1nc(CCl)n(-c2ccc(F)cc2)n1`, the MNTC at 24 h in data set [1] is approximately 20 µg/mL. The viability at 24 h, 50 µM in data set [2] was more than 95%.

For `Cc1ccc(-n2nc(C(=O)OCc3c(-c4ccccc4)no[n+]3[O-])nc2CCl)cc1`, in data set [1], the MNTC at 24 h was approximately 20 µg/mL. Further, the viability at 24 h, 50 µM in data set [2] was more than 95%.

The inhibition in vivo is the relative decrease from the control value, in per cent. For `COc1ccc2c(c1)c(CC(=O)O)c(C)n2C(=O)c1ccc(Cl)cc1` [INDOMETHACIN], the result with Mus musculus [4] and in the data set on Mus musculus [5] was Active. In the data set on RAW264.7, this molecule showed an IC50 of 56.8 µM. Besides, in data set [3], the Activity entry was “Toxic”. Also, the inhibition in vivo at 10 mg/kg in the data set on Mus musculus [6] was found to be 44%; in the data set with Mus musculus [7], 29.8%.

These data come from ChEMBL document CHEMBL5620357, “Synthesis and anti-inflammatory activity evaluation of NO-releasing furoxan/1,2,4-triazole hybrid derivatives” (Eur J Med Chem, 2023).
